Measured values: PubChem BioAssay AID196 (DTP/NCI, 2004)
Values joined by “and” are separate entries in the source; they are usually repeats but may differ in a detail not shown here. Equal entries are not always repeated. Toxic doses and inconclusive results are not listed.

Test system: BDF1 mice, intracerebral B16 melanoma, median survival T/C
Test: NCI In Vivo Anticancer Drug Screen. Data for tumor model B16 Melanoma (intracerebral) in B6D2F1 (BDF1) mice
Conditions: endpoint: median survival time, higher = longer survival
Experimental: The antitumor activity of compounds was measured in mice bearing transplantable tumors. Survival or tumor size were measured and the results are expressed as the measurement made in the treated group (T) divided by the measurement made in the vehicle treated control group (C). The tumor model used in this assay is B16 Melanoma (intracerebral) in B6D2F1 (BDF1) mice

[1] = dose: 1.0 mg/kg/injection, schedule: Q01DX009 (ip), vehicle: saline
[2] = dose: 2.0 mg/kg/injection, schedule: Q01DX009 (ip), vehicle: saline
[3] = dose: 4.0 mg/kg/injection, schedule: Q01DX009 (ip), vehicle: saline
[4] = dose: 26.7 mg/kg/injection, schedule: Q01DX001 (ip), vehicle: Klucel (hydroxypropylcellulose) (HPC)
[5] = dose: 40.0 mg/kg/injection, schedule: Q01DX001 (ip), vehicle: Klucel (hydroxypropylcellulose) (HPC)
[6] = dose: 60.0 mg/kg/injection, schedule: Q01DX001 (ip), vehicle: Klucel (hydroxypropylcellulose) (HPC)

`COc1cccc2c1C(=O)c1c(O)c3c(c(O)c1C2=O)C[C@@](O)(/C(C)=N/NC(=O)c1ccccc1)C[C@@H]3OC1CC(N)C(O)C(C)O1` (stereo partly drawn) was tested, and the T/C (dose: 1.0 mg/kg/injection, schedule: Q01DX009 (ip), vehicle: saline with Tween-80) was 105 % of control, the T/C [1] was 89 % of control and the T/C (dose: 2.0 mg/kg/injection, schedule: Q01DX009 (ip), vehicle: saline with Tween-80) was 111 % of control. The T/C [2] was 89 % of control and 95 % of control, the T/C (dose: 4.0 mg/kg/injection, schedule: Q01DX009 (ip), vehicle: saline with Tween-80) was 109 % of control and the T/C [3] was 93 % of control and 100 % of control. The T/C (dose: 8.0 mg/kg/injection, schedule: Q01DX009 (ip), vehicle: saline) was 99 % of control.

For `O=CC(NC(=O)N(CCF)N=O)C(O)C(O)C(O)CO` (stereo not drawn), the T/C [4] was 107 % of control, the T/C [5] was 109 % of control and the T/C [6] was 118 % of control.

In the case of `CN(C)N=Nc1ccc([N+](=O)[O-])cc1C(N)=O`, the T/C (dose: 16.0 mg/kg/injection, schedule: Q01DX005 (ip), vehicle: saline with Tween-80) is reported as 100 % of control, the T/C (dose: 32.0 mg/kg/injection, schedule: Q01DX005 (ip), vehicle: saline with Tween-80) is reported as 105 % of control and the T/C (dose: 64.0 mg/kg/injection, schedule: Q01DX005 (ip), vehicle: saline with Tween-80) is reported as 110 % of control. For the same compound, the T/C (dose: 128.0 mg/kg/injection, schedule: Q01DX005 (ip), vehicle: saline with Tween-80) was 107 % of control.

`Nc1ncnc2c1ncn2C1OC(COP(=O)(O)O)C(O)C1O` (stereo not drawn) was tested, and the T/C (dose: 1600.0 mg/kg/injection, schedule: Q01DX009 (ip), vehicle: saline) was 99 % of control and 102 % of control.

For `O=C1C(N2CC2)=C(N2CC2)C(=O)C(N2CC2)=C1N1CC1`, the T/C (dose: 10.0 micrograms/kg/injection, schedule: Q01DX009 (ip), vehicle: saline) was 120 % of control, the T/C (dose: 20.0 micrograms/kg/injection, schedule: Q01DX009 (ip), vehicle: saline) was 107 % of control and the T/C (dose: 80.0 micrograms/kg/injection, schedule: Q01DX009 (ip), vehicle: saline) was 95 % of control.

`COc1ccc2c(c1O)-c1cccc3c1[C@@H](C2)N(CCCl)CC3` was tested, and the T/C (dose: 8.0 mg/kg/injection, schedule: Q01DX005 (ip), vehicle: saline) was 94 % of control and the T/C (dose: 16.0 mg/kg/injection, schedule: Q01DX005 (ip), vehicle: saline) was 88 % of control.

For `O=NN(CCF)C(=O)NCCO`, the T/C (dose: 13.0 mg/kg/injection, schedule: Q01DX001 (ip), vehicle: saline) was 169 % of control, the T/C (dose: 21.6 mg/kg/injection, schedule: Q01DX001 (ip), vehicle: saline) was 209 % of control and the T/C [4] was 90 % of control. The T/C (dose: 36.0 mg/kg/injection, schedule: Q01DX001 (ip), vehicle: saline) was 392 % of control, the T/C [5] was 338 % of control and the T/C [6] was 220 % of control.

`NC(=O)N(CCCl)N=O` was tested, and the T/C (dose: 1.0 mg/kg/injection, schedule: Q01DX001 (ip), vehicle: saline + alcohol) was 102 % of control, the T/C (dose: 2.0 mg/kg/injection, schedule: Q01DX001 (ip), vehicle: saline + alcohol) was 112 % of control and the T/C (dose: 4.0 mg/kg/injection, schedule: Q01DX001 (ip), vehicle: saline + alcohol) was 121 % of control.

In the case of `NC(CSC(c1ccccc1)(c1ccccc1)c1ccccc1)C(=O)O` (stereo not drawn), the T/C (dose: 32.0 mg/kg/injection, schedule: Q01DX005 (ip), vehicle: Klucel (hydroxypropylcellulose) (HPC)) is reported as 105 % of control and 115 % of control, the T/C (dose: 64.0 mg/kg/injection, schedule: Q01DX005 (ip), vehicle: Klucel (hydroxypropylcellulose) (HPC)) is reported as 105 % of control and 112 % of control and the T/C (dose: 128.0 mg/kg/injection, schedule: Q01DX005 (ip), vehicle: Klucel (hydroxypropylcellulose) (HPC)) is reported as 117 % of control and 119 % of control. For the same compound, the T/C (dose: 256.0 mg/kg/injection, schedule: Q01DX005 (ip), vehicle: Klucel (hydroxypropylcellulose) (HPC)) was 124 % of control and 107 % of control.

With `COc1cccc2c1C(=O)c1c(O)c3c(c(O)c1C2=O)C[C@@](O)(C(=O)CO)C[C@@H]3OC1CC(N)C(O)C(C)O1` (stereo partly drawn) the T/C (dose: 0.13 mg/kg/injection, schedule: Q01DX009 (ip), vehicle: saline) was 91 % of control, the T/C (dose: 0.25 mg/kg/injection, schedule: Q01DX009 (ip), vehicle: saline) was 108 % of control and the T/C (dose: 0.25 mg/kg/injection, schedule: Q03HX008 (ip), vehicle: saline) was 100 % of control. For the same compound, the T/C (dose: 0.5 mg/kg/injection, schedule: Q01DX009 (ip), vehicle: saline) was 112 % of control, the T/C (dose: 0.5 mg/kg/injection, schedule: Q03HX008 (ip), vehicle: saline) was 100 % of control and the T/C [1] was 104 % of control. For the same compound, the T/C (dose: 1.0 mg/kg/injection, schedule: Q03HX008 (ip), vehicle: saline) was 107 % of control, the T/C [2] was 108 % of control and the T/C (dose: 2.0 mg/kg/injection, schedule: Q03HX008 (ip), vehicle: saline) was 96 % of control. For the same compound, the T/C [3] was 116 % of control.
